Measurements: patent US10238689B2, “Methods for combating bacterial infections by killing persister cells with mitomycin C and/or cisplatin” (THE PENN STATE RESEARCH FOUNDATION, priority 2015, dated 2019)
Entries after “also recorded” stand apart in the source; their conditions may differ.

Key:
[1] = system: E. coli K-12 ΔuvrA, ΔuvrB, and ΔuvrC mutants; assay: Planktonic killing of uvr deletion mutants; type: cell-based, Escherichia coli; conditions: mid-stationary phase, buffered LB
Experimental: (§1) In order to obtain exponential and mid-stationary phase cultures in LB, buffered LB or TSB, overnight cultures (16 h) were diluted 1:1000 in fresh medium and grown to the desired turbidity (i.e., a turbidity below 2 at 600 nm for exponential phase and a turbidity of 3 to 4 at 600 nm for mid-stationary phase). Late-stationary phase cultures in LB or buffered LB were obtained by growing overnight cultures (16 h). In order to obtain exponential and late-stationary phase cultures in M9-glucose, overnight cultures (16 h) were washed diluted 1:1000 in M9-glucose and grown for the desired period of time (i.e., a turbidity of 0.4 at 600 nm for exponential phase and 24 h of growth for late-stationary phase). Anaerobically grown cultures were maintained with ˜20% CO2, ˜79% N2, and ˜1% H2. In order to obtain rifampicin-induced persister cultures in buffered LB, overnight cultures (16 h) were diluted 1:1000 in fresh medium and grown to a turbidity of 0.8 at 600 nm. Cultures were exposed to rifampicin (100 μg/mL) for 30 min, centrifuged, and resuspended in fresh medium to remove the rifampicin.

[2] = system: EHEC, S. aureus, and P. aeruginosa PAO1; type: cell-based; conditions: mono- and co-cultures in wound-like medium, 5 h treatment
Experimental: Overnight cultures (16 h) of EHEC, S. aureus, and P. aeruginosa PAO1 were grown in LB (TSB for S. aureus), washed with 0.85% NaCl solution, and diluted 1:1000 (as mono-cultures or co-cultures) in wound-like medium (WLM) (45% Bolton broth, 50% heparinized bovine plasma, and 5% laked horse blood). […] Samples containing S. aureus were coagulated, so sections of coagulated WLM were cut and weighed add appropriate amounts of antibiotics. Coagulated samples were triturated and vortexed to release cells prior to measuring cell viability.

P. aeruginosa PA14 = assay: Planktonic antibiotic killing assay; type: cell-based, Pseudomonas aeruginosa; conditions: mid-stationary phase, rich medium; MMC 10 μg/mL, 3 h
Experimental: as §1

For `CO[C@@]12[C@H](COC(N)=O)C3=C(C(=O)C(C)=C(N)C3=O)N1C[C@@H]1N[C@@H]12` [MMC, mitomycin C], the “time of treatment to eradication (beyond the limit of detection)” value [1] was “less than 30 min”, the “effectiveness under wound-like conditions” value [2] was “eradicates pathogens; also recorded: more effective than ciprofloxacin and ampicillin” and the survival (P. aeruginosa PA14) was 0.0038±0.0005%.
